Source: US20090270379A1, “QUINOLONE DERIVATIVES USEFUL AS ANTIBACTERIAL AGENTS” (priority 2008, published 2009)
≈ marks a conversion by molar mass, not a printed value.

Tests used:
Type in all cases: cell-based
[1] = tested on: strain C, fluoroquinolone-resistant clinical isolate of Streptococcus pneumoniae; assay: In vitro antibacterial activity (MIC), microdilution broth method, strain C; settings: read-out: MIC (μg/mL) C
Procedure: (§1) Minimal inhibitory concentration (MIC) is an indicator of in vitro antibacterial activity. […] The in vitro antimicrobial activity of representative compounds of the present invention was determined by the microdilution broth method following the test method from the National Committee for Clinical Laboratory Standards (NCCLS). This method is described in the NCCLS Document M7-A4, Vol. 17, No. 2, “Methods for Dilution Antimicrobial Susceptibility Test for Bacteria that Grow Aerobically—Fourth Edition”, which is incorporated herein by reference.
(§2) In this method two-fold serial dilutions of drug in cation adjusted Mueller-Hinton broth were added to wells in microdilution trays. The test organisms were prepared by adjusting the turbidity of actively growing broth cultures so that the final concentration of test organism after it is added to the wells was approximately 5×10^4 CFU/well. Following inoculation of the microdilution trays, the trays were incubated at 35° C. for 16-20 hours and then read. The amount of growth in the wells containing the test compound was compared with the amount of growth in the growth-control wells (no test compound) used in each tray.
(§3) Representative compounds of the present invention were tested against a variety of pathogenic bacteria with results as listed in Table 3, below.

[2] = tested on: strain B, fluoroquinolone-resistant clinical isolate of Streptococcus pneumoniae; assay: In vitro antibacterial activity (MIC), microdilution broth method, strain B; settings: read-out: MIC (μg/mL) B
Procedure: as §1, §2, §3

[3] = tested on: Staphylococcus aureus OC4172; assay: In vitro antibacterial activity (MIC), microdilution broth method, strain A; settings: cation adjusted Mueller-Hinton broth, 35° C., 16-20 hours
Procedure: as §1, §2, §3

[4] = tested on: Streptococcus pneumoniae ATCC 49619; assay: In vitro antibacterial activity (MIC), microdilution broth method, strain E; settings: ATCC49619, 35° C., 16-20 hours
Procedure: as §1, §2, §3

[5] = tested on: strain D, fluoroquinolone-resistant clinical isolate of Streptococcus pneumoniae; assay: In vitro antibacterial activity (MIC), microdilution broth method, strain D; settings: read-out: MIC (μg/mL) D
Procedure: as §1, §2, §3

SMILES | MIC [1] [µg/mL] | MIC [2] [µg/mL] | MIC [3] [µg/mL] | MIC [4] [µg/mL] | MIC [5] [µg/mL]
O=C(O)c1cn(C2CC2)c2c(OC(F)F)c(-c3cc4n(c3)CCNC4)ccc2c1=O [Compound 1, 1-Cyclopropyl-8-difluoromethoxy-4-oxo-7-(1,2,3,4-tetrahydro-pyrrolo[1,2-a]pyrazin-7-yl)-1,4-dihydro-quinoline-3-carboxylic acid] | 8 (≈ 19.3 µM) | 1 (≈ 2.41 µM) | 0.06 (≈ 0.144 µM) | 0.5 (≈ 1.2 µM) | 8 (≈ 19.3 µM)
O=C(O)c1cn(C2CC2)c2c(OC(F)F)c(C3=C[C@H]4CN(Cc5ccccc5)CCN4C3)ccc2c1=O [Compound 2, 7-(2-Benzyl-1,2,3,4,6,8a-hexahydro-pyrrolo[1,2S-a]pyrazin-7-yl)-1-cyclopropyl-8-difluoromethoxy-4-oxo-1,4-dihydro-quinoline-3-carboxylic acid] | > 16 | > 16 | 0.5 (≈ 0.985 µM) | 8 (≈ 15.8 µM) | > 16
O=C(O)c1cn(C2CC2)c2c(OC(F)F)c(C3C[C@H]4CNCCN4C3)ccc2c1=O (stereo partly drawn) [Compound 3, 1-Cyclopropyl-8-difluoromethoxy-7-(octahydro-pyrrolo[1,2S-a]pyrazin-7-yl)-4-oxo-1,4-dihydro-quinoline-3-carboxylic acid] | > 16 | > 16 | 8 (≈ 19.1 µM) | > 16 | > 16
CN1CCn2cc(-c3ccc4c(=O)c(C(=O)O)cn(C5CC5)c4c3OC(F)F)cc2C1 [Compound 4, 1-Cyclopropyl-8-difluoromethoxy-7-(2-methyl-1,2,3,4-tetrahydro-pyrrolo[1,2-a]pyrazin-7-yl)-4-oxo-1,4-dihydro-quinoline-3-carboxylic acid] | > 16 | 2 (≈ 4.66 µM) | 0.25 (≈ 0.582 µM) | 2 (≈ 4.66 µM) | > 16
CN1CCN2CC(c3ccc4c(=O)c(C(=O)O)cn(C5CC5)c4c3OC(F)F)C[C@H]2C1 (stereo partly shown) [Compound 5, 1-Cyclopropyl-8-difluoromethoxy-7-(2-methyl-octahydro-pyrrolo[1,2s-a]pyrazin-7-yl)-4-oxo-1,4-dihydro-quinoline-3-carboxylic acid] | > 16 | > 16 | 8 (≈ 18.5 µM) | > 16 | > 16
C[C@H]1CN2CC(c3ccc4c(=O)c(C(=O)O)cn(C5CC5)c4c3OC(F)F)C[C@H]2CN1 (stereo partly drawn) [Compound 6, 1-Cyclopropyl-8-difluoromethoxy-7-(3S-methyl-octahydro-pyrrolo[1,2S-a]pyrazin-7-yl)-4-oxo-1,4-dihydro-quinoline-3-carboxylic acid] | > 16 | > 16 | 4 (≈ 9.23 µM) | > 16 | > 16
C[C@H]1Cn2cc(-c3ccc4c(=O)c(C(=O)O)cn(C5CC5)c4c3OC(F)F)cc2CN1 [Compound 7, 1-Cyclopropyl-8-difluoromethoxy-7-(3S-methyl-1,2,3,4-tetrahydro-pyrrolo[1,2-a]pyrazin-7-yl)-4-oxo-1,4-dihydro-quinoline-3-carboxylic acid] | 8 (≈ 18.6 µM) | 1 (≈ 2.33 µM) | 0.12 (≈ 0.279 µM) | 1 (≈ 2.33 µM) | 16 (≈ 37.3 µM)
C[C@@H]1NCCn2cc(-c3ccc4c(=O)c(C(=O)O)cn(C5CC5)c4c3OC(F)F)cc21 [Compound 8, 1-Cyclopropyl-8-difluoromethoxy-7-(1S-methyl-1,2,3,4-tetrahydro-pyrrolo[1,2-a]pyrazin-7-yl)-4-oxo-1,4-dihydro-quinoline-3-carboxylic acid] | 16 (≈ 37.3 µM) | 4 (≈ 9.31 µM) | 0.5 (≈ 1.16 µM) | 1 (≈ 2.33 µM) | > 16
C[C@H]1NCCn2cc(-c3ccc4c(=O)c(C(=O)O)cn(C5CC5)c4c3OC(F)F)cc21 [Compound 9, 1-Cyclopropyl-8-difluoromethoxy-7-(1R-methyl-1,2,3,4-tetrahydro-pyrrolo[1,2-a]pyrazin-7-yl)-4-oxo-1,4-dihydro-quinoline-3-carboxylic acid] | 16 (≈ 37.3 µM) | 4 (≈ 9.31 µM) | 0.5 (≈ 1.16 µM) | 1 (≈ 2.33 µM) | > 16
CN[C@@H](C)C(=O)N1CCn2cc(-c3ccc4c(=O)c(C(=O)O)cn(C5CC5)c4c3OC(F)F)cc2C1 [Compound 10, 1-Cyclopropyl-8-difluoromethoxy-7-[2S-(2-methylamino-propionyl)-1,2,3,4-tetrahydro-pyrrolo[1,2-a]pyrazin-7-yl]-4-oxo-1,4-dihydro-quinoline-3-carboxylic acid] | 16 (≈ 32 µM) | 4 (≈ 7.99 µM) | 0.25 (≈ 0.499 µM) | 2 (≈ 4 µM) | > 16
COc1c(-c2cc3n(c2)C[C@H](C)NC3)c(F)cc2c(=O)c(C(=O)O)cn(C3CC3)c12 [Compound 11, 1-Cyclopropyl-6-fluoro-8-methoxy-7-(3S-methyl-1,2,3,4-tetrahydro-pyrrolo[1,2-a]pyrazin-7-yl)-4-oxo-1,4-dihydro-quinoline-3-carboxylic acid] | 1 (≈ 2.43 µM) | 0.5 (≈ 1.22 µM) | 0.03 (≈ 0.0729 µM) | 0.12 (≈ 0.292 µM) | 4 (≈ 9.72 µM)
COc1c(-c2cc3n(c2)C[C@@H](C)NC3)c(F)cc2c(=O)c(C(=O)O)cn(C3CC3)c12 [Compound 12, 1-Cyclopropyl-6-fluoro-8-methoxy-7-(3R-methyl-1,2,3,4-tetrahydro-pyrrolo[1,2-a]pyrazin-7-yl)-4-oxo-1,4-dihydro-quinoline-3-carboxylic acid] | 2 (≈ 4.86 µM) | 1 (≈ 2.43 µM) | 0.03 (≈ 0.0729 µM) | 0.25 (≈ 0.608 µM) | 8 (≈ 19.4 µM)
COc1c(-c2cc3n(c2)C[C@H](C)N(C)C3)c(F)cc2c(=O)c(C(=O)O)cn(C3CC3)c12 [Compound 13, 1-Cyclopropyl-7-(2,3S-dimethyl-1,2,3,4-tetrahydro-pyrrolo[1,2-a]pyrazin-7-yl)-6-fluoro-8-methoxy-4-oxo-1,4-dihydro-quinoline-3-carboxylic acid] | 4 (≈ 9.4 µM) | 0.5 (≈ 1.18 µM) | 0.12 (≈ 0.282 µM) | 0.5 (≈ 1.18 µM) | 8 (≈ 18.8 µM)
COc1c(-c2cc3n(c2)C[C@@H](C)N(C)C3)c(F)cc2c(=O)c(C(=O)O)cn(C3CC3)c12 [Compound 14, 1-Cyclopropyl-7-(2,3R-dimethyl-1,2,3,4-tetrahydro-pyrrolo[1,2-a]pyrazin-7-yl)-6-fluoro-8-methoxy-4-oxo-1,4-dihydro-quinoline-3-carboxylic acid] | 8 (≈ 18.8 µM) | 2 (≈ 4.7 µM) | 0.25 (≈ 0.588 µM) | 1 (≈ 2.35 µM) | > 16
COc1c(-c2cc3n(c2)C[C@H](CO)N(C)C3)c(F)cc2c(=O)c(C(=O)O)cn(C3CC3)c12 [Compound 15, 1-Cyclopropyl-6-fluoro-7-(3R-hydroxymethyl-2-methyl-1,2,3,4-tetrahydro-pyrrolo[1,2-a]pyrazin-7-yl)-8-methoxy-4-oxo-1,4-dihydro-quinoline-3-carboxylic acid] | 8 (≈ 18.1 µM) | 4 (≈ 9.06 µM) | 0.12 (≈ 0.272 µM) | 1 (≈ 2.27 µM) | 16 (≈ 36.2 µM)
COc1c(-c2cc3n(c2)CCN[C@H]3C)c(F)cc2c(=O)c(C(=O)O)cn(C3CC3)c12 [Compound 16, 1-Cyclopropyl-6-fluoro-8-methoxy-7-(1S-methyl-1,2,3,4-tetrahydro-pyrrolo[1,2-a]pyrazin-7-yl)-4-oxo-1,4-dihydro-quinoline-3-carboxylic acid] | 4 (≈ 9.72 µM) | 2 (≈ 4.86 µM) | 0.12 (≈ 0.292 µM) | 0.5 (≈ 1.22 µM) | 8 (≈ 19.4 µM)
COc1c(-c2cc3n(c2)CCN[C@@H]3C)c(F)cc2c(=O)c(C(=O)O)cn(C3CC3)c12 [Compound 17, 1-Cyclopropyl-6-fluoro-8-methoxy-7-(1R-methyl-1,2,3,4-tetrahydro-pyrrolo[1,2-a]pyrazin-7-yl)-4-oxo-1,4-dihydro-quinoline-3-carboxylic acid] | 16 (≈ 38.9 µM) | 8 (≈ 19.4 µM) | 0.25 (≈ 0.608 µM) | 2 (≈ 4.86 µM) | > 16
COc1c(-c2cc3n(c2)C[C@H](C)N[C@@H]3C)c(F)cc2c(=O)c(C(=O)O)cn(C3CC3)c12 [Compound 18, 1-Cyclopropyl-7-(1R,3S-dimethyl-1,2,3,4-tetrahydro-pyrrolo[1,2-a]pyrazin-7-yl)-6-fluoro-8-methoxy-4-oxo-1,4-dihydro-quinoline-3-carboxylic acid] | 8 (≈ 18.8 µM) | 2 (≈ 4.7 µM) | 0.12 (≈ 0.282 µM) | 1 (≈ 2.35 µM) | 16 (≈ 37.6 µM)
C[C@H]1Cn2cc(-c3cc4c(cc3F)c(=O)c(C(=O)O)cn4C3CC3)cc2CN1 [Compound 19, 1-Cyclopropyl-6-fluoro-7-(3S-methyl-1,2,3,4-tetrahydro-pyrrolo[1,2-a]pyrazin-7-yl)-4-oxo-1,4-dihydro-quinoline-3-carboxylic acid] | 4 (≈ 10.5 µM) | 2 (≈ 5.24 µM) | 0.06 (≈ 0.157 µM) | 0.5 (≈ 1.31 µM) | > 16
C[C@H]1Cn2cc(-c3cc4c(cc3F)c(=O)c(C(=O)O)cn4C3CC3)cc2CN1C [Compound 20, 1-Cyclopropyl-7-(2,3S-dimethyl-1,2,3,4-tetrahydro-pyrrolo[1,2-a]pyrazin-7-yl)-6-fluoro-4-oxo-1,4-dihydro-quinoline-3-carboxylic acid] | 16 (≈ 40.5 µM) | 4 (≈ 10.1 µM) | 0.5 (≈ 1.26 µM) | 1 (≈ 2.53 µM) | > 16
